Results published in paper PMC5098229, “A Novel Non-Peptidic Agonist of the Ghrelin Receptor with Orexigenic Activity In vivo” (Scientific Reports, 2016).

Molecular target: T1, GHS-R1a receptor (ghrelin receptor) (Homo sapiens, UniProt Q92847)
T1 construct: gene GHSR; human GHS-R1a with C-terminal EGFP tag, stably expressed in Hek293a cells
Test: calcium mobilisation in Hek-GHS-R1a-EGFP cells; no response in wild-type Hek or 5-HT2C cells; reduced by JMV2959
Format: cell-based

T1 sequence (Q92847 whole entry): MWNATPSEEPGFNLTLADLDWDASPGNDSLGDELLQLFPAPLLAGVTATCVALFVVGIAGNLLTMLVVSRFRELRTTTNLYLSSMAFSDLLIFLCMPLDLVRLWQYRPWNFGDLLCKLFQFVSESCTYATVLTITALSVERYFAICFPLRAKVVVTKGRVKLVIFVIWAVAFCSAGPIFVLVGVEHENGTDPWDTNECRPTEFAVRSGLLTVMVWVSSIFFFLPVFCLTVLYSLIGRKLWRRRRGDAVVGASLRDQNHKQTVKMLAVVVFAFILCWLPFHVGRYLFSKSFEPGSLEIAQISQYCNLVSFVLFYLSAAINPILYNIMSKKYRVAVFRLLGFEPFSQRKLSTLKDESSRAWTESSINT

**Q.** How did the EC50 turn out when `COc1cc(C)n(C)c(=O)c1C(F)(F)F` [compound 8, 4-Methoxy-1,6-dimethyl-3-(trifluoromethyl)pyridin-2(1H)-one] was run?
**A.** 3.1 µM
